Test results published in the NIST ThermoML archive (doi:10.1021/je500977g).

Assay: mn = molality of the nth substance listed, in mol/kg
Conditions: Liquid

C[N+](C)(C)[O-] [trimethylamine oxide] + O
mass density [kg/m3]
Conditions | 278.15 K | 288.15 K | 298.15 K
101 kPa, Vibrating tube method, m1 = 0.0875 | 1000.16 | 999.28 | 997.22
101 kPa, Vibrating tube method, m1 = 0.1707 | 1000.36 | 999.46 | 997.4
101 kPa, Vibrating tube method, m1 = 0.2465 | 1000.55 | 999.63 | 997.57
101 kPa, Vibrating tube method, m1 = 0.3259 | 1000.75 | 999.82 | 997.74
101 kPa, Vibrating tube method, m1 = 0.4018 | 1000.95 | 1000 | 997.91
101 kPa, Vibrating tube method, m1 = 0.5862 | 1001.48 | 1000.47 | 998.35
101 kPa, Vibrating tube method, m1 = 0.7963 | 1002.11 | 1001.02 | 998.86
101 kPa, Vibrating tube method, m1 = 1.039 | 1002.89 | 1001.71 | 999.49
101 kPa, Vibrating tube method, m1 = 1.373 | 1004.01 | 1002.7 | 1000.4
101 kPa, Vibrating tube method, m1 = 1.923 | 1006.05 | 1004.48 | 1002.01
101 kPa, Vibrating tube method, m1 = 3.259 | 1011.69 | 1009.4 | 1006.44
101 kPa, Vibrating tube method, m1 = 4.325 | 1016.41 | 1013.58 | 1010.2
10000 kPa, Constant-volume piezometry, m1 = 0.1707 | 1005.1 | 1003.98 | 1001.77
10000 kPa, Constant-volume piezometry, m1 = 0.3259 | 1005.43 | 1004.27 | 1002.05
10000 kPa, Constant-volume piezometry, m1 = 0.5862 | 1006.05 | 1004.81 | 1002.57
10000 kPa, Constant-volume piezometry, m1 = 1.039 | 1007.25 | 1005.85 | 1003.56
10000 kPa, Constant-volume piezometry, m1 = 1.373 | 1008.19 | 1006.74 | 1004.38
10000 kPa, Constant-volume piezometry, m1 = 1.923 | 1009.95 | 1008.34 | 1005.83
10000 kPa, Constant-volume piezometry, m1 = 3.259 | 1015.17 | 1012.89 | 1009.93
10000 kPa, Constant-volume piezometry, m1 = 4.325 | 1019.59 | 1016.87 | 1013.44
25000 kPa, Constant-volume piezometry, m1 = 0.1707 | 1012.1 | 1010.63 | 1008.19
25000 kPa, Constant-volume piezometry, m1 = 0.3259 | 1012.31 | 1010.83 | 1008.39
25000 kPa, Constant-volume piezometry, m1 = 0.5862 | 1012.75 | 1011.2 | 1008.79
25000 kPa, Constant-volume piezometry, m1 = 1.039 | 1013.68 | 1012.01 | 1009.58
25000 kPa, Constant-volume piezometry, m1 = 1.373 | 1014.44 | 1012.71 | 1010.25
25000 kPa, Constant-volume piezometry, m1 = 1.923 | 1015.88 | 1014.05 | 1011.48
25000 kPa, Constant-volume piezometry, m1 = 3.259 | 1020.33 | 1018.05 | –
25000 kPa, Constant-volume piezometry, m1 = 4.325 | 1024.4 | 1021.69 | –
50000 kPa, Constant-volume piezometry, m1 = 0.1707 | 1023.24 | 1021.25 | –
50000 kPa, Constant-volume piezometry, m1 = 0.3259 | 1023.31 | 1021.31 | –
50000 kPa, Constant-volume piezometry, m1 = 0.5862 | 1023.5 | 1021.47 | –
50000 kPa, Constant-volume piezometry, m1 = 1.039 | 1023.97 | 1021.88 | –
50000 kPa, Constant-volume piezometry, m1 = 1.373 | 1024.42 | 1022.31 | –
50000 kPa, Constant-volume piezometry, m1 = 1.923 | 1025.37 | 1023.22 | –
50000 kPa, Constant-volume piezometry, m1 = 3.259 | 1028.7 | 1026.33 | –
50000 kPa, Constant-volume piezometry, m1 = 4.325 | 1032.12 | 1029.39 | –
75000 kPa, Constant-volume piezometry, m1 = 0.1707 | 1033.79 | 1031.35 | –
75000 kPa, Constant-volume piezometry, m1 = 0.3259 | 1033.7 | 1031.27 | –
75000 kPa, Constant-volume piezometry, m1 = 0.5862 | 1033.63 | 1031.21 | –
75000 kPa, Constant-volume piezometry, m1 = 1.039 | 1033.68 | 1031.28 | –
75000 kPa, Constant-volume piezometry, m1 = 1.373 | 1033.85 | 1031.46 | –
75000 kPa, Constant-volume piezometry, m1 = 1.923 | 1034.37 | 1031.97 | –
75000 kPa, Constant-volume piezometry, m1 = 3.259 | 1036.77 | 1034.24 | –
75000 kPa, Constant-volume piezometry, m1 = 4.325 | 1039.49 | 1036.73 | –
100000 kPa, Constant-volume piezometry, m1 = 0.1707 | 1043.78 | 1040.95 | –
100000 kPa, Constant-volume piezometry, m1 = 0.3259 | 1043.57 | 1040.74 | –
100000 kPa, Constant-volume piezometry, m1 = 0.5862 | 1043.26 | 1040.48 | –
100000 kPa, Constant-volume piezometry, m1 = 1.039 | 1042.96 | 1040.22 | –
100000 kPa, Constant-volume piezometry, m1 = 1.373 | 1042.87 | 1040.16 | –
100000 kPa, Constant-volume piezometry, m1 = 1.923 | 1043.01 | 1040.3 | –
100000 kPa, Constant-volume piezometry, m1 = 3.259 | 1044.64 | 1041.8 | –
100000 kPa, Constant-volume piezometry, m1 = 4.325 | 1046.85 | 1043.78 | –
